# According to US12338266B2 (GENETIC S.P.A., priority 2019, dated 2025):
# “Also recorded” adds a separate entry of the source.
# Key:
# [1] = system: mice with OVA-induced allergic asthma; assay: Total and differential leukocyte counts in BAL fluid (Protocol-2); type: in vivo, Balb/c mice
# Protocol: Male Balb/c SPF mice (26*2 g, 6 week-old) were purchased from the animal house facilities at the Faculty of Medicine (University of Sāo Paulo, Brazil). They were group-housed in a temperature-controlled room at 22° C. with a 12/12-hour light/dark cycle and allowed free access to food and water. The study is in agreement with the Ethical Principles for Animal Research established by the Brazilian College for Animal Experimentation (COBEA). According to the internal laboratory rules, euthanasia will be performed if severe distress related to the test agents developed during the experiment. Mice were sensitized with two subcutaneous injections of 0.2 ml of OVA/Al(OH)3, with an interval of 7 days (Sham animals received the Al(OH)3 suspension in PBS with no OVA). Chicken egg-white ovalbumin (OVA; grade V, cat. A5503, Sigma Chemical Co., St. Louis, Mo.) was dissolved in sterile phosphate buffered saline (PBS) solution (50 μg/ml) and Al(OH)3 was added (at 8 mg/ml). This mix was used to induce the allergic sensitization of the animals by subcutaneous injection. OVA was dissolved at 1% in sterile PBS solution and this solution was nebulized (as the immunological challenges). Seven days after the second sensitization (i.e., 3rd week), the animals were nebulized twice a week with the 1% OVA solution (Sham and untreated OVA groups were nebulized with PBS) during 20 minutes for the next 4 weeks. Thirty minutes before the challenges (OVA nebulization) and daily during the next 4 weeks, mice were intra-nasally treated (10 μl/animal as 5 μl/nostril) with the respective compounds/vehicle. […] Animals were killed at selected time points by overdose of enflurane and BAL and blood collected.
# After Penh evaluation, the mice were anesthetized with inhaled isofluorane (5% v/v in O2) and blood samples were collected from the descending abdominal aorta. The mice were then euthanized by exsanguination and bronchoalveolar lavage (BAL) was performed by exposing and cannulating the trachea with a polyethylene tube (1 mm outer diameter) connected to a syringe. The lungs were washed by flushing 300 μL of heparin-containing PBS solution (20 UI/mL). The retrieved BAL lavage aliquots were obtained and the same procedure was repeated four additional times. The samples were centrifuged (1000 g for 10 min) and the cell pellet was resuspended in 200 μL of PBS solution, Total cell counts were determined using a Neubauer chamber, and differential counting was carried out in cytospin (Fanem Mod 2400; Sāo Paulo, Brazil) preparations stained with May-Grünwald dye. Leukocytes were classified based on morphological criteria.
# [2] = system: mice with OVA-induced allergic asthma; assay: Plasma IgE levels by ELISA in OVA-sensitized mice (Protocol-1); type: in vivo, Balb/c mice
# Protocol: Balb/c mice (8-9 weeks old, Charles River, Calco, Italy) were housed in the animal care facility at the Department of Pharmacy of the University of Naples. Italy in a controlled environment (temperature 21±2° C. and humidity 60±10%) and provided with standard rodent chow and water. All animals were allowed to acclimate for four days prior to experiments and were subjected to 12 h light-12 h dark schedule. Each mouse was assigned an identity number and randomtzed to different groups so that all experiments were carried out in a blinded manner. The experimental procedures were approved by the Italian Ministry according to International and National law and policies (EU Directive 2010/63/EU and Italian DL 26/2014 for animal experiments, ARRIVE guidelines and the Basel declaration including the 3R concept). Animal studies are reported in compliance with the ARRIVE guidelines. Balb/c mice is the most widely mouse strain used to study asthma-like features in vivo and to investigate the undedying molecular and cellular mechanisms of allergen sensitization. Mice were treated subcutaneously (s.c.) with 0.4 mL (100 μg) of ovalbumin (OVA) complexed with alum (13 mg mL^−1) (OVA group) at day 0 and 7. Chicken egg-white ovalbumin (OVA: grade V. cat. A5503, Sigma Chemical Co., St. Louis, MO) was dissolved in sterile phosphate buffered saline (PBS) solution (250 μg/1 ml) and Al(OH)3 was added (at 13 mg/ml). This mix was used to induce the allergic sensitization of the animals by subcutaneous injection. OVA was dissolved at 3% in sterile PBS solution and this solution was nebulized (as the immunological challenges). At day 21 mice were exposed to OVA challenge for three days and then sacrificed. This experimental procedure induces in the mice an increase in plasma IgE levels and this effect is by itself sufficient to induce a significant increase in bronchial hyper-responsiveness and pulmonary inflammation, typical hallmarks of asthma. A group of animals was treated s.c. with saline (vehicle group). […] Animals were killed at selected time points by overdose of enflurane and bronchi and blood collected.
# Blood was collected by intracardiac puncture using citrate as anticoagulant. Plasma was obtained by centrifugation at 800×g at 4′C for 10 minutes and immediately frozen at −80° C. Total IgE levels were measured by means of ELISA using matched antibody pairs (BD Biosciences Pharmingen San Jose, Calif.).
compound,measurement,setting,value
CC(C)(O)c1ccccc1CCC(SCC1(CC(=O)OCC(=O)[C@@]23O[C@H](C4CCCCC4)O[C@@H]2C[C@H]2[C@@H]4CCC5=CC(=O)C=C[C@]5(C)[C@H]4[C@@H](O)C[C@@]23C)CC1)c1cccc(/C=C/c2ccc3ccc(Cl)cc3n2)c1 (stereo partly shown) [montelukast desisobutyryl-ciclesonide ester],inhibition of eosinophil recruitment to the lungs at the lowest dose tested,"[1]; 10 nmol/animal/day, comparable with ciclesonide alone at 100 nmol/animal/day",significant effects
same,BAL eosinophils (OVA-induced increase),"[1]; 10, 30 and 100 nmol/animal/day intranasal, 4 weeks, FIG. 10",did not reach statistical significance; also recorded: lower number of eosinophils
same,allergen induced plasma IgE increase,"[2]; 0.5, 1 and 2 mg/Kg i.p.",reduces allergen induced IgE increase in a dose-dependent manner
same,"inhibition of allergen induced IgE increase, compared to ciclesonide","[2]; ester 2 mg/kg i.p. vs ciclesonide 1 mg/kg, FIG. 6C",increased inhibitory effect
